From patent publication US10328087B2, “Formulations for solubilizing hormones” (TherapeuticsMD, Inc., priority 2015, dated 2019) come the findings set out here.

Series [1] has as its system ovariectomized female Crl:CD rats. Description: Transdermal progesterone opposing estradiol effects on uterus and vagina in ovariectomized rats. The format is in vivo, rat. The following applies: for Endometrial Gland Density, LSMean / Endometrial Gland Size, LSMean / Endometrial Height, LSMean / Luminal Epithelial Cell Height, LSMean / Number of Mitotic Figures, LSMean: Day 8, EST 3 μg/kg SC alone, or with 10 mg/kg SC Prog, or with 3.125 mg/kg Dermal Prog. Here is the method:
Transdermally delivered progesterone blocked growth-related estrogenic effects on the endometrium and vagina in ovariectomized rats.
Thirty-two 8-week-old female Crl:CD® rats underwent ovariectomy 2 weeks prior to the start of the study. Rats were then randomly assigned to 4 groups of 8 rats each and dosed according to the schedule in Table 4. Control animals were dosed with saline or vehicle as noted. Two hours after the final dose on Day 8, the rats were humanely euthanized and the rats' vaginas and the distal portions of the rats' uterine horns were fixed and processed for histology and computer-aided morphometry.

Series [2] in a line: Solubility of progesterone in solvent (concentration for clear solution). The class given is physicochemical. The text has this:
Without wishing to be bound by any particular theory, it is believed that the compositions and methods described herein address the problems associated with known steroid hormone formulations such as poor solubility, poor bioavailability, and poor stability. More specifically, it has now been discovered that terpenes are unexpectedly effective in enhancing the solubility of insoluble steroid hormones such as progesterone and likewise act as excellent penetration enhancers for these same compounds. […] The compositions can also have any combination of enhanced dissolution rates, penetration capabilities, absorption, and bioavailability.

[3] abbreviates: estradiol-treated ovariectomized rats, progesterone SC or transdermally.

Marks after values point to notes of the source that are not given here.

`C[C@]12CC[C@@H]3c4ccc(O)cc4CC[C@H]3[C@@H]1CC[C@@H]2O` [EST, (17β)-estra-1,3,5(10)-triene-3,17-diol]: in series [1] (ovariectomized rats), the “Endometrial Gland Density, LSMean” value is given as 7.09^b cells/mm^2; the “Endometrial Gland Size, LSMean” value is given as 4540^b μm^2; the “Endometrial Height, LSMean” value is listed as 418^b μm; the “Luminal Epithelial Cell Height, LSMean” value is given as 47.8^b μm. Also, the “Number of Mitotic Figures, LSMean” value in series [1] (ovariectomized rats) was 921^b. Moreover, the “effect on the uterus (organ weight measurements and histology)” value in series [1] (unopposed estradiol treatment, ovariectomized rats) was “hypertrophy”.

Regarding `CC(=O)[C@H]1CC[C@H]2[C@@H]3CCC4=CC(=O)CC[C@]4(C)[C@H]3CC[C@]12C` [Progesterone, pregn-4-ene-3,20-dione], the “Concentration of Progesterone (mg/g) for clear solution” value in series [2] (solvent Absolute Ethanol) came to 57 mg/g. Further, the “Concentration of Progesterone (mg/g) for clear solution” value in series [2] (solvent d-Limonene) is recorded as 204.0 mg/g. For the same compound, the uterine weight entry in series [1] (estradiol-treated ovariectomized rats receiving progesterone SC or transdermally, FIGS. 5 and 6) is “Significantly reduced”. Besides, in series [1] (setting [3]), the “endometrial gland density compared to unopposed estradiol” value is reported as “significant increase” and the “luminal epithelial cell height compared to unopposed estradiol” value was “significant reduction”. Moreover, in series [1] (histology, estradiol-treated ovariectomized rats receiving progesterone SC or transdermally), the “estrogen-specific cellular aspects in the uterus and vagina” value is “not detected”. Also, in series [1] (ovariectomized rats), the “Endometrial Gland Density, LSMean” value is on record as 10.3^b,d cells/mm^2; the “Endometrial Gland Size, LSMean” value is reported as 4390^b μm^2; the “Endometrial Height, LSMean” value is 436^b μm; the “Luminal Epithelial Cell Height, LSMean” value is recorded as 31.91^b,d μm. Besides, the “Number of Mitotic Figures, LSMean” value in series [1] (ovariectomized rats) is reported as 595^b,d.
